Reference: US5182273A, “Spirocyclic N, O derivatives of cyclotriphosphazenes and their use in therapy” (Pierre Fabre Medicament, priority 1990, dated 1993)

These compounds were tested on mouse L1210 leukemic cells (assay: In vitro cytotoxicity, inhibition of cell growth (cell counter)). Conditions: read-out: IC50 (concentration for which 50% inhibition of cell growth is obtained).
Format: cell-based
Method: The cytotoxic activity in vitro was evaluated by the determination of the IC50 (concentration for which 50% inhibition of cell growth is obtained) on mouse L1210 leukemic cells.
The IC50 is evaluated by means of a cell counter.
With `CN1CCOP12=NP(N1CC1)(N1CC1)=NP(N1CC1)(N1CC1)=N2` (centres unmarked) [Compound 1, 4-methyl-7,7,9,9-tetra-1-aziridinyl-7,7,9,9-tetrahydro-1-oxa-4,6,8,10-tetraaza-5λ^5-7,9-triphosphaspiro-[4,5]-deca-5,7,9-triene] the IC50 was 9 µM. Work on `C1COP2(=NP(N3CC3)(N3CC3)=NP(N3CC3)(N3CC3)=N2)N1` (centres unmarked) [Compound 2, 7,7,9,9-Tetra-1-aziridinyl-7,7,9,9-tetrahydro-1-oxa-4,6,8,10-tetraaza-5λ^5,7,9-triphosphaspiro-[4,5]-deca-5,7,9-triene] yielded an IC50 of 8.7 µM. Work on `C1CNP2(=NP(N3CC3)(N3CC3)=NP(N3CC3)(N3CC3)=N2)OC1` (centres unmarked) [Compound 3, 2,2,4,4-Tetra-1-aziridinyl-2,2,4,4-tetrahydro-7-oxa-1,3,5,11-tetraaza-2,4,6λ^5-triphosphaspiro-[5,5]-undeca-1,3,5-triene] yielded an IC50 of 2.3 µM. Work on `C1CCC(N2CCCOP23=NP(N2CC2)(N2CC2)=NP(N2CC2)(N2CC2)=N3)CC1` (centres unmarked) [Compound 4, 11-Cyclohexyl-2,2,4,4-tetra-1-aziridinyl-2,2,4,4-tetrahydro-7-oxa-1,3,5,11-tetraaza-2,4,6λ^5-triphosphaspiro-[5,5]-undeca-1,3,5-triene] yielded an IC50 of 9.9 µM. With `c1ccc(CN2CCOP23=NP(N2CC2)(N2CC2)=NP(N2CC2)(N2CC2)=N3)cc1` (centres unmarked) [Compound 5, 4-Phenylmethyl-7,7,9,9-tetra-1-aziridinyl-7,7,9,9-tetrahydro-1-oxa-4,6,8,10-tetraaza-5λ^5,7,9-triphosphaspiro-[4,5]-deca-5,7,9-triene] the IC50 was 5.8 µM. Compound `c1ccc(CN2CCCOP23=NP(N2CC2)(N2CC2)=NP(N2CC2)(N2CC2)=N3)cc1` (centres unmarked) [Compound 6, 11-Phenylmethyl-2,2,4,4-tetra-1-aziridinyl-2,2,4,4-tetrahydro-7-oxa-1,3,5,11-tetraaza-2,4,6λ^5-triphosphaspiro-[5,5]-undeca-1,3,5-triene] has an IC50 of 5.8 µM. `c1ccc(CCN2CCOP23=NP(N2CC2)(N2CC2)=NP(N2CC2)(N2CC2)=N3)cc1` (centres unmarked) [Compound 7, 4-(2-Phenylethyl)-7,7,9,9-tetra-1-aziridinyl-7,7,9,9-tetrahydro-1-oxa-4,6,8,10-tetraaza-5λ^5,7,9-triphosphaspiro-[4,5]-deca-5,7,9-triene] showed an IC50 of 7.8 µM. `c1ccc(CCN2CCCOP23=NP(N2CC2)(N2CC2)=NP(N2CC2)(N2CC2)=N3)cc1` (centres unmarked) [Compound 8, 11-(2-Phenylethyl)-2,2,4,4-tetra-1-aziridinyl-2,2,4,4-tetrahydro-7-oxa-1,3,5,11-tetraaza-2,4,6λ^5-triphosphaspiro-[5,5]-undeca-1,3,5-triene] showed an IC50 of 6.5 µM.
